{"source": "patent US9725449B2", "about": "“Tricyclic compounds as anticancer agents” (BRISTOL-MYERS SQUIBB COMPANY, priority 2015, dated 2017)"}
{"target": "BRD4 (Homo sapiens, UniProt O60885)", "assay": "Time resolved fluorescence resonance energy transfer (TR-FRET) binding assay, bromodomain BRD4", "conditions": "one of the FRET assays described; read-out: FRET BRD4 IC50", "units": {"IC50": "nM"}}
{"smiles": "[2H]C([2H])([2H])c1nnn(C)c1-c1cnc2c3c(OCCO)ncc(S(C)(=O)=O)c3n([C@H](c3ccccc3F)C3CCOCC3)c2c1", "note": "[Example 63, 2-({8-[(S)-(2-Fluorophenyl)(oxan-4-yl)methyl]-10-methanesulfonyl-5-[4-(^2H3)methyl-1-methyl-1H-1,2,3-triazol-5-yl]-3,8,12-triazatricyclo[7.4.0.0^2,^7]trideca-1(13),2(7),3,5,9,11-hexaen-13-yl}oxy)ethan-1-ol]", "IC50": "< 1"}
{"smiles": "[2H]C([2H])([2H])c1nnn(C)c1-c1cnc2c3c(OC)ncc(S(C)(=O)=O)c3n(C(c3ncccc3F)C3CCOCC3)c2c1", "note": "(stereo not drawn) [Example 64, 8-[(3-Fluoropyridin-2-yl)(oxan-4-yl)methyl]-10-methanesulfonyl-13-methoxy-5-[4-(^2H3)methyl-1-methyl-1H-1,2,3-triazol-5-yl]-3,8,12-triazatricyclo[7.4.0.0^2,^7]trideca-1(13),2(7),3,5,9,11-hexaene]", "IC50": "< 1"}
{"smiles": "[2H]C([2H])([2H])c1nnn(C)c1-c1cnc2c3c(OC)ncc(S(C)(=O)=O)c3n(C(c3ncccc3F)C3CCOCC3)c2c1", "note": "(stereo not drawn) [Example 65, 8-[(3-Fluoropyridin-2-yl)(oxan-4-yl)methyl]-10-methanesulfonyl-13-methoxy-5-[4-(^2H3)methyl-1-methyl-1H-1,2,3-triazol-5-yl]-3,8,12-triazatricyclo[7.4.0.0^2,^7]trideca-1(13),2(7),3,5,9,11-hexaene]", "IC50": "< 1500"}
{"smiles": "[2H]C([2H])([2H])c1onc(C)c1-c1cnc2c3c(OC)ncc(S(=O)(=O)C([2H])([2H])[2H])c3n(C(c3ncccc3F)C3CCOCC3)c2c1", "note": "(stereo not drawn) [Example 66, 8-[(3-Fluoropyridin-2-yl)(oxan-4-yl)methyl]-10-(^2H3)methanesulfonyl-13-methoxy-5-[5-(^2H3)methyl-3-methyl-1,2-oxazol-4-yl]-3,8,12-triazatricyclo[7.4.0.0^2,^7]trideca-1(13),2(7),3,5,9,11-hexaene]", "IC50": "< 10"}
{"smiles": "[2H]C([2H])([2H])c1onc(C)c1-c1cnc2c3c(OC)ncc(S(=O)(=O)C([2H])([2H])[2H])c3n(C(c3ncccc3F)C3CCOCC3)c2c1", "note": "(stereo not drawn) [Example 67, 8-[(3-Fluoropyridin-2-yl)(oxan-4-yl)methyl]-10-(^2H3)methanesulfonyl-13-methoxy-5-[5-(^2H3)methyl-3-methyl-1,2-oxazol-4-yl]-3,8,12-triazatricyclo[7.4.0.0^2,^7]trideca-1(13),2(7),3,5,9,11-hexaene]", "IC50": "< 1500"}
{"smiles": "[2H]C([2H])([2H])c1nnn(C)c1-c1cnc2c3c(OCC)ncc(S(C)(=O)=O)c3n(C(c3ncccc3F)C3CCOCC3)c2c1", "note": "(stereo not drawn) [Example 68, 13-Ethoxy-8-[(3-fluoropyridin-2-yl)(oxan-4-yl)methyl]-10-methanesulfonyl-5-[4-(^2H3)methyl-1-methyl-1H-1,2,3-triazol-5-yl]-3,8,12-triazatricyclo[7.4.0.0^2,^7]trideca-1(13),2(7),3,5,9,11-hexaene]", "IC50": "< 1"}
{"smiles": "[2H]C([2H])([2H])c1nnn(C)c1-c1cnc2c3c(OCC)ncc(S(C)(=O)=O)c3n(C(c3ncccc3F)C3CCOCC3)c2c1", "note": "(stereo not drawn) [Example 69, 13-Ethoxy-8-[(3-fluoropyridin-2-yl)(oxan-4-yl)methyl]-10-methanesulfonyl-5-[4-(^2H3)methyl-1-methyl-1H-1,2,3-triazol-5-yl]-3,8,12-triazatricyclo[7.4.0.0^2,^7]trideca-1(13),2(7),3,5,9,11-hexaene]", "IC50": "< 1500"}
{"smiles": "[2H]C([2H])([2H])c1nnn(C)c1-c1cnc2c3c(OC(C)C)ncc(S(C)(=O)=O)c3n(C(c3ncccc3F)C3CCOCC3)c2c1", "note": "(stereo not drawn) [Example 70, 8-[(3-Fluoropyridin-2-yl)(oxan-4-yl)methyl]-10-methanesulfonyl-5-[4-(^2H3)methyl-1-methyl-1H-1,2,3-triazol-5-yl]-13-(propan-2-yloxy)-3,8,12-triazatricyclo[7.4.0.0^2,^7]trideca-1(13),2(7),3,5,9,11-hexaene]", "IC50": "< 1"}
{"smiles": "[2H]C([2H])([2H])c1nnn(C)c1-c1cnc2c3c(OC(C)C)ncc(S(C)(=O)=O)c3n(C(c3ncccc3F)C3CCOCC3)c2c1", "note": "(stereo not drawn) [Example 71, 8-[(3-Fluoropyridin-2-yl)(oxan-4-yl)methyl]-10-methanesulfonyl-5-[4-(^2H3)methyl-1-methyl-1H-1,2,3-triazol-5-yl]-13-(propan-2-yloxy)-3,8,12-triazatricyclo[7.4.0.0^2,^7]trideca-1(13),2(7),3,5,9,11-hexaene]", "IC50": "< 1500"}
{"smiles": "[2H]C([2H])([2H])c1nnn(C)c1-c1cnc2c3c(OC)ncc(S(C)(=O)=O)c3n(C(c3ncccc3F)C3CCC(F)(F)CC3)c2c1", "note": "(stereo not drawn) [Example 72, 8-[(4,4-Difluorocyclohexyl)(3-fluoropyridin-2-yl)methyl]-10-methanesulfonyl-13-methoxy-5-[4-(^2H3)methyl-1-methyl-1H-1,2,3-triazol-5-yl]-3,8,12-triazatricyclo[7.4.0.0^2,^7]trideca-1(13),2(7),3,5,9,11-hexaene]", "IC50": "< 10"}
{"smiles": "[2H]C([2H])([2H])c1nnn(C)c1-c1cnc2c3c(OC)ncc(S(C)(=O)=O)c3n(C(c3ncccc3F)C3CCC(F)(F)CC3)c2c1", "note": "(stereo not drawn) [Example 73, 8-[(4,4-Difluorocyclohexyl)(3-fluoropyridin-2-yl)methyl]-10-methanesulfonyl-13-methoxy-5-[4-(^2H3)methyl-1-methyl-1H-1,2,3-triazol-5-yl]-3,8,12-triazatricyclo[7.4.0.0^2,^7]trideca-1(13),2(7),3,5,9,11-hexaene]", "IC50": "< 1500"}
{"smiles": "[2H]C([2H])([2H])c1nnn(C)c1-c1cnc2c3c(OCC)ncc(S(C)(=O)=O)c3n(C(c3ncccc3F)C3CCC(F)(F)CC3)c2c1", "note": "(stereo not drawn) [Example 74, 8-[(4,4-Difluorocyclohexyl)(3-fluoropyridin-2-yl)methyl]-13-ethoxy-10-methanesulfonyl-5-[4-(^2H3)methyl-1-methyl-1H-1,2,3-triazol-5-yl]-3,8,12-triazatricyclo[7.4.0.0^2,^7]trideca-1(13),2(7),3,5,9,11-hexaene]", "IC50": "< 10"}
{"smiles": "[2H]C([2H])([2H])c1nnn(C)c1-c1cnc2c3c(OCC)ncc(S(C)(=O)=O)c3n(C(c3ncccc3F)C3CCC(F)(F)CC3)c2c1", "note": "(stereo not drawn) [Example 75, 8-[(4,4-Difluorocyclohexyl)(3-fluoropyridin-2-yl)methyl]-13-ethoxy-10-methanesulfonyl-5-[4-(^2H3)methyl-1-methyl-1H-1,2,3-triazol-5-yl]-3,8,12-triazatricyclo[7.4.0.0^2,^7]trideca-1(13),2(7),3,5,9,11-hexaene]", "IC50": "< 1500"}
{"smiles": "[2H]C([2H])([2H])c1nnn(C)c1-c1cnc2c3c(OCC4CC4)ncc(S(C)(=O)=O)c3n([C@H](c3ccccc3F)C3CCOCC3)c2c1", "note": "[Example 76, 13-(Cyclopropylmethoxy)-8-[(S)-(2-fluorophenyl)(oxan-4-yl)methyl]-10-methanesulfonyl-5-[4-(^2H3)methyl-1-methyl-1H-1,2,3-triazol-5-yl]-3,8,12-triazatricyclo[7.4.0.0^2,^7]trideca-1(13),2(7),3,5,9,11-hexaene]", "IC50": "< 1"}
{"smiles": "[2H]C([2H])([2H])c1nnn(C)c1-c1cnc2c3c(OCC)ncc(S(C)(=O)=O)c3n([C@H](c3ccc(F)cc3)C3CCOCC3)c2c1", "note": "[Example 77, 13-Ethoxy-8-[(S)-(4-fluorophenyl)(oxan-4-yl)methyl]-10-methanesulfonyl-5-[4-(^2H3)methyl-1-methyl-1H-1,2,3-triazol-5-yl]-3,8,12-triazatricyclo[7.4.0.0^2,^7]trideca-1(13),2(7),3,5,9,11-hexaene]", "IC50": "< 1"}
